This is an account of results in patent publication US11739070B2, “C5A receptor modulators” (IDORSIA PHARMACEUTICALS LTD, priority 2018, dated 2023).

For this experiment, the target named is T1, C5AR1 (Homo sapiens, UniProt P21730).
T1 construct: host or cells: CHO-K1
T1 sequence (P21730 1-350): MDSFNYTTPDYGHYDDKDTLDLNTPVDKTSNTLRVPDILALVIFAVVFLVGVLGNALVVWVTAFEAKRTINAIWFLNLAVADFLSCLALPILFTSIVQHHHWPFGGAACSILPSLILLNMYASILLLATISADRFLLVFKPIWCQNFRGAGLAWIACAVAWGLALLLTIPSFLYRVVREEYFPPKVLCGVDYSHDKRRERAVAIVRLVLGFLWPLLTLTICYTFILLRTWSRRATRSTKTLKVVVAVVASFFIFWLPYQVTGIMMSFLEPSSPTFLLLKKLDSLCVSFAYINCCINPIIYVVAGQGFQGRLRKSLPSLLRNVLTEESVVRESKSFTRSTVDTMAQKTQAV
Kind of experiment: hC5a DISCO IC50 assay (PathHunter beta-arrestin, antagonist mode). Format: cell-based. The settings on record: CHO-K1 C5AR1 beta-arrestin cell line; antagonist vs 1-10 nM C5a agonist; geometric mean values; read-out: C5aR IC50. On the procedure: II. Biological Assays In Vitro Assay hC5a DISCO IC50 Assay
5 μl Antagonist at 6-fold end concentration or DMSO control is added to assay medium and subsequently 5 μl 1-10 nM C5a agonist at 6 fold end concentration. Cells are centrifuged for 1 min at 1000 rpm and incubated for 1.5 hour in at 37° C. Plates are equilibrated at room temperature for several minutes before adding 12 μl/well Detection Reagent (PathHunter Detection Kit, DiscoverX, Cat #93-0001). Plates are centrifuged for 1 min at 1000 rpm and incubated for 45 minutes at RT before being measured on a Fluostar Optima, BMG Labtech. IC50 values are calculated from a serial dilution range of antagonist using inhouse software and given in nmol/l.
The calculated IC50 values may fluctuate depending on the daily cellular assay performance. Fluctuations of this kind are known to those skilled in the art. Average IC50 values from several measurements are given as geometric mean values.

In general, IC50 refers to the concentration that gives 50% inhibition. For the compound `COc1cccc2c1n(Cc1ccccc1C(F)(F)F)c(=O)n2[C@@H]1CCN(c2c(C=O)c(C)nn2C)C1` [Example 71, 5-{(R)-3-[4-Methoxy-2-oxo-3-(2-trifluoromethyl-benzyl)-2,3-dihydro-benzoimidazol-1-yl]-pyrrolidin-1-yl}-1,3-dimethyl-1H-pyrazole-4-carbaldehyde], the IC50 was 133 nM.

Consider `COc1cccc2c1n(Cc1ccccc1C(F)(F)F)c(=O)n2[C@@H]1CCN(c2nncc(Cl)c2Cl)C1` [Example 157, 1-[(R)-1-(4,5-Dichloro-pyridazin-3-yl)-pyrrolidin-3-yl]-4-methoxy-3-(2-trifluoromethyl-benzyl)-1,3-dihydro-benzoimidazol-2-one], for which the IC50 is 630 nM. The figure for `COc1cccc2c1n(Cc1ccccc1C(F)(F)F)c(=O)n2C1CC2CC1CN2C(=O)OC(C)(C)C` (stereo not shown) [Example 188, 5-[4-Methoxy-2-oxo-3-(2-trifluoromethyl-benzyl)-2,3-dihydro-benzoimidazol-1-yl]-2-aza-bicyclo[2.2.1]heptane-2-carboxylic acid tert-butyl ester] is 313 nM; for `COc1cccc2c1n(Cc1ccccc1C(F)(F)F)c(=O)n2C1CCN(C(=O)C(C)(C)C)CC1` [Example 28, 1-[1-(2,2-Dimethyl-propionyl)-piperidin-4-yl]-4-methoxy-3-(2-trifluoromethyl-benzyl)-1,3-dihydro-benzoimidazol-2-one] it is 1330 nM; for `COc1cccc2c1n(Cc1ccccc1C(F)(F)F)c(=O)n2[C@@H]1CCN(c2c(C#N)c(C)nn2C)C1` [Example 87, 5-{(R)-3-[4-Methoxy-2-oxo-3-(2-trifluoromethyl-benzyl)-2,3-dihydro-benzoimidazol-1-yl]-pyrrolidin-1-yl}-1,3-dimethyl-1H-pyrazole-4-carbonitrile] it is 629 nM. Turning to `COc1cccc2c1n(Cc1ccccc1C(F)(F)F)c(=O)n2C1CCN(c2ncccc2C)CC1` [Example 232, 4-Methoxy-1-(3′-methyl-3,4,5,6-tetrahydro-2H-[1,2′]bipyridinyl-4-yl)-3-(2-trifluoromethyl-benzyl)-1,3-dihydro-benzoimidazol-2-one], the half-inhibitory concentration (IC50) came to 82 nM. Take `COc1ccccc1Cn1c(=O)n([C@@H]2CCN(C(=O)OC(C)(C)C)C2)c2cccc(OC)c21` [Example 65, (R)-3-[4-Methoxy-3-(2-methoxy-benzyl)-2-oxo-2,3-dihydro-benzoimidazol-1-yl]-pyrrolidine-1-carboxylic acid tert-butyl ester]: the IC50 was found to be 396 nM. As for `COc1cccc2c1n(Cc1ccccc1C(F)(F)F)c(=O)n2C1CCN(c2c(F)cccc2C=O)C(C)C1` (stereo not shown) [Example 145, 3-Fluoro-2-{4-[4-methoxy-2-oxo-3-(2-trifluoromethyl-benzyl)-2,3-dihydro-benzoimidazol-1-yl]-2-methyl-piperidin-1-yl}-benzaldehyde], the figure is 16 nM. As for `COc1cccc2c1n(Cc1ccccc1C(F)(F)F)c(=O)n2C1CCCN(c2c(C)cccc2F)C1` (stereo not shown) [Example 212, 1-[1-(2-Fluoro-6-methyl-phenyl)-piperidin-3-yl]-4-methoxy-3-(2-trifluoromethyl-benzyl)-1,3-dihydro-benzoimidazol-2-one], the figure is 2080 nM; as for `Cc1cccc(F)c1N1CC[C@@H](n2c(=O)n(Cc3ccccc3C(F)(F)F)c3c(OC4COC4)nccc32)C1` [Example 127, 1-[(R)-1-(2-Fluoro-6-methyl-phenyl)-pyrrolidin-3-yl]-4-(oxetan-3-yloxy)-3-(2-trifluoromethyl-benzyl)-1,3-dihydro-imidazo[4,5-c]pyridin-2-one], 17 nM; as for `COc1ncncc1Cn1c(=O)n([C@@H]2CCN(c3c(F)cccc3C#N)C2)c2cccc(OC)c21` [Example 114, 3-Fluoro-2-{(R)-3-[4-methoxy-3-(4-methoxy-pyrimidin-5-ylmethyl)-2-oxo-2,3-dihydro-benzoimidazol-1-yl]-pyrrolidin-1-yl}-benzonitrile], 1540 nM. As for `COc1cccc2c1n(Cc1ccccc1C(F)(F)F)c(=O)n2C1CCN(c2cc(C3CC3)nn2C)CC1` [Example 21, 1-[1-(5-Cyclopropyl-2-methyl-2H-pyrazol-3-yl)-piperidin-4-yl]-4-methoxy-3-(2-trifluoromethyl-benzyl)-1,3-dihydro-benzoimidazol-2-one], the figure is 3440 nM. Regarding `Cc1cccc(F)c1N1CC[C@@H](n2c(=O)n(Cc3ccccc3C(F)(F)F)c3c(OCC(O)CO)cccc32)C1` (stereo partly drawn) [Example 152, 4-(2,3-Dihydroxy-propoxy)-1-[(R)-1-(2-fluoro-6-methyl-phenyl)-pyrrolidin-3-yl]-3-(2-trifluoromethyl-benzyl)-1,3-dihydro-benzoimidazol-2-one], the IC50 amounted to 38 nM. In the case of `COc1cccc2c1n(Cc1ccccc1C(F)(F)F)c(=O)n2C1CCN(C(=O)OC(C)(C)C)CC1F` (stereo not shown) [Example 210, 3-Fluoro-4-[4-methoxy-2-oxo-3-(2-trifluoromethyl-benzyl)-2,3-dihydro-benzoimidazol-1-yl]-piperidine-1-carboxylic acid tert-butyl ester], the IC50 was determined as 2290 nM. As for `COc1ccnc(OC)c1N1CCC(n2c(=O)n(Cc3ccccc3C(F)(F)F)c3c(OC)cccc32)CC1` [Example 248, 1-(2′,4′-Dimethoxy-3,4,5,6-tetrahydro-2H-[1,3′]bipyridinyl-4-yl)-4-methoxy-3-(2-trifluoromethyl-benzyl)-1,3-dihydro-benzoimidazol-2-one], the figure is 182 nM; as for `COc1cccc2c1n(Cc1cnccc1C(F)(F)F)c(=O)n2[C@@H]1CCN(c2c(C)cccc2F)C1` [Example 203, 1-[(R)-1-(2-Fluoro-6-methyl-phenyl)-pyrrolidin-3-yl]-4-methoxy-3-(4-trifluoromethyl-pyridin-3-ylmethyl)-1,3-dihydro-benzoimidazol-2-one], 6 nM; as for `COc1cccc2c1n(Cc1ccccc1C(F)(F)F)c(=O)n2C1C2CC1CN(C(=O)OC(C)(C)C)C2` (stereo not shown) [Example 191, 6-[4-Methoxy-2-oxo-3-(2-trifluoromethyl-benzyl)-2,3-dihydro-benzoimidazol-1-yl]-3-aza-bicyclo[3.1.1]heptane-3-carboxylic acid tert-butyl ester], 114 nM. Consider `N#Cc1cccc(F)c1N1CC[C@@H](n2c(=O)n(Cc3ccccc3C(F)(F)F)c3c(C(N)=O)cccc32)C1` [Example 100, 1-[(R)-1-(2-Cyano-6-fluoro-phenyl)-pyrrolidin-3-yl]-2-oxo-3-(2-trifluoromethyl-benzyl)-2,3-dihydro-1H-benzoimidazole-4-carboxylic acid amide], for which the IC50 amounted to 1430 nM. On to `COc1cccc2c1n(Cc1ncccc1OC(C)C)c(=O)n2C1CCN(c2c(C)cccc2F)CC1` [Example 183, 1-[1-(2-Fluoro-6-methyl-phenyl)-piperidin-4-yl]-3-(3-isopropoxy-pyridin-2-ylmethyl)-4-methoxy-1,3-dihydro-benzoimidazol-2-one], for which the IC50 worked out at 14 nM. Take `COc1cccc2c1n(Cc1ccccc1C(F)(F)F)c(=O)n2[C@@H]1CCN(c2c(F)cccc2CN2CCOCC2)C1` [Example 115, 1-[(R)-1-(2-Fluoro-6-morpholin-4-ylmethyl-phenyl)-pyrrolidin-3-yl]-4-methoxy-3-(2-trifluoromethyl-benzyl)-1,3-dihydro-benzoimidazol-2-one]: the IC50 turned out to be 21 nM. `COc1cccc2c1n(Cc1ccccc1C(F)(F)F)c(=O)n2C1CCN(c2ncccc2F)CC1` [Example 236, 1-(3′-Fluoro-3,4,5,6-tetrahydro-2H-[1,2′]bipyridinyl-4-yl)-4-methoxy-3-(2-trifluoromethyl-benzyl)-1,3-dihydro-benzoimidazol-2-one]: the IC50 was determined as 171 nM. As for `COc1cccc2c1n(Cc1ccccc1C(F)(F)F)c(=O)n2[C@@H]1CCN(c2c(F)cccc2CN2CCC(O)CC2)C1` [Example 134, 1-{(R)-1-[2-Fluoro-6-(4-hydroxy-piperidin-1-ylmethyl)-phenyl]-pyrrolidin-3-yl}-4-methoxy-3-(2-trifluoromethyl-benzyl)-1,3-dihydro-benzoimidazol-2-one], the figure is 2260 nM; as for `Cc1cccc(F)c1N1CC[C@@H](n2c(=O)n(Cc3ccccc3C(F)(F)F)c3c(OCC(O)CO)nccc32)C1` (stereo partly drawn) [Example 128, 4-(2,3-Dihydroxy-propoxy)-1-[(R)-1-(2-fluoro-6-methyl-phenyl)-pyrrolidin-3-yl]-3-(2-trifluoromethyl-benzyl)-1,3-dihydro-imidazo[4,5-c]pyridin-2-one], 207 nM; as for `COc1cccc2c1n(Cc1ccccc1C(F)(F)F)c(=O)n2C1CCN(C(=O)C2CC2)CC1` [Example 222, 1-(1-Cyclopropanecarbonyl-piperidin-4-yl)-4-methoxy-3-(2-trifluoromethyl-benzyl)-1,3-dihydro-benzoimidazol-2-one], 2650 nM.

As to `COc1cccc2c1n(Cc1ccccc1C(F)(F)F)c(=O)n2[C@@H]1CCN(c2c(C)ccnc2F)C1` [Example 37, 1-[(R)-1-(2-Fluoro-4-methyl-pyridin-3-yl)-pyrrolidin-3-yl]-4-methoxy-3-(2-trifluoromethyl-benzyl)-1,3-dihydro-benzoimidazol-2-one], the concentration for half-maximal inhibition (IC50) was 7 nM.
